Assay results published in article PMC10991534, “The redox-sensitive R-loop of the carbon control protein SbtB contributes to the regulation of the cyanobacterial CCM” (Scientific Reports, 2024).

Assays:
Experiment in all cases: ITC, one set of sites model
[1] = molecular target: T1, SbtB (Synechocystis sp. PCC 6803, UniProt P73954); settings: WT oxidized R-loop; re-calculated here from the group's earlier ITC data (ref 11) with single binding model; cited from earlier work
T1 construct: gene slr1513; R-loop Cys105-Cys110
T1 sequence (P73954 whole entry): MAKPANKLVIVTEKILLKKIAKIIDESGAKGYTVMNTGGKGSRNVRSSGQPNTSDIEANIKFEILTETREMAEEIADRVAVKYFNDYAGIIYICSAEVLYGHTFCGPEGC

[2] = molecular target: T2, SbtB-Δ104 (Synechocystis sp. PCC 6803, UniProt P73954); format: binding
T2 construct: gene slr1513; C-terminal R-loop truncated, StrepII-tagged, recombinant, trimer
T2 sequence (P73954 1-104, stated change not applied): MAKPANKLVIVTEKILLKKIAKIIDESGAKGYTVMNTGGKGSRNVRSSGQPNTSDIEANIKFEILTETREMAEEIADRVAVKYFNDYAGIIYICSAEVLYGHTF

[3] = molecular target: T3, SbtB (Synechocystis sp. PCC 6803, UniProt P73954, C105A/C110A); format: binding
T3 construct: gene slr1513; R-loop Cys105-Cys110
T3 sequence (P73954 whole entry C105A/C110A): as the sequence (P73954 whole entry) above, with C105A, C110A counted along it

[4] = molecular target: T4, SbtB (Synechocystis sp. PCC 6803, UniProt P73954, C105S/C110S); format: binding
T4 construct: gene slr1513; R-loop Cys105-Cys110
T4 sequence (P73954 whole entry C105S/C110S): as the sequence (P73954 whole entry) above, with C105S, C110S counted along it

[5] = molecular target: T5, SbtB (Synechocystis sp. PCC 6803, UniProt P73954, C110S); format: binding
T5 construct: gene slr1513; R-loop Cys105-Cys110
T5 sequence (P73954 whole entry C110S): as the sequence (P73954 whole entry) above, with C110S counted along it

[6] = molecular target: T6, SbtB (Synechocystis sp. PCC 6803, UniProt P73954, C105S); format: binding
T6 construct: gene slr1513; R-loop Cys105-Cys110
T6 sequence (P73954 whole entry C105S): as the sequence (P73954 whole entry) above, with C105S counted along it

[7] = molecular target: T7, SbtB-Δ109 (Synechocystis sp. PCC 6803, UniProt P73954); format: binding
T7 construct: gene slr1513; last residue Cys110 deleted, StrepII-tagged, recombinant, trimer
T7 sequence (P73954 1-109, stated change not applied): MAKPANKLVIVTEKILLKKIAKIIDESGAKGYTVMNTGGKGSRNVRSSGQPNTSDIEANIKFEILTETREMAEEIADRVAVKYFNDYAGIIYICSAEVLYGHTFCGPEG

## Nc1ncnc2c1ncn2[C@@H]1O[C@H](COP(=O)(O)OP(=O)(O)O)[C@@H](O)[C@H]1O [ADP]
[1]
  Kd: 55.8 ± 7.7 µM
[2]
  Kd: 79.2 ± 55.1 µM

## Nc1ncnc2c1ncn2[C@@H]1O[C@H](COP(=O)(O)O)[C@@H](O)[C@H]1O [AMP]
[1]
  Kd: 87.4 ± 3.7 µM
[2]
  Kd: 78.2 ± 6 µM

## Nc1ncnc2c1ncn2[C@@H]1O[C@H](COP(=O)(O)OP(=O)(O)OP(=O)(O)O)[C@@H](O)[C@H]1O [ATP]
[3]
  Kd: 29.8 ± 14.1 µM
[4]
  Kd: 47.6 ± 21.3 µM
[5]
  Kd: 60.1 ± 6.7 µM
[6]
  Kd: 40.5 ± 75.9 µM
[1]
  Kd: 62.5 ± 16.6 µM
[2]
  Kd: 35 ± 7.1 µM
[7]
  Kd: 32.5 ± 17.9 µM
